Data taken from ChEMBL document CHEMBL1782050, “Discovery of new nanomolar peroxisome proliferator-activated receptor γ activators via elaborate ligand-based modeling” (Eur J Med Chem, 2011).

Molecular target: T1, Peroxisome proliferator-activated receptor gamma (Homo sapiens, UniProt P37231)
T1 sequence (P37231 whole entry): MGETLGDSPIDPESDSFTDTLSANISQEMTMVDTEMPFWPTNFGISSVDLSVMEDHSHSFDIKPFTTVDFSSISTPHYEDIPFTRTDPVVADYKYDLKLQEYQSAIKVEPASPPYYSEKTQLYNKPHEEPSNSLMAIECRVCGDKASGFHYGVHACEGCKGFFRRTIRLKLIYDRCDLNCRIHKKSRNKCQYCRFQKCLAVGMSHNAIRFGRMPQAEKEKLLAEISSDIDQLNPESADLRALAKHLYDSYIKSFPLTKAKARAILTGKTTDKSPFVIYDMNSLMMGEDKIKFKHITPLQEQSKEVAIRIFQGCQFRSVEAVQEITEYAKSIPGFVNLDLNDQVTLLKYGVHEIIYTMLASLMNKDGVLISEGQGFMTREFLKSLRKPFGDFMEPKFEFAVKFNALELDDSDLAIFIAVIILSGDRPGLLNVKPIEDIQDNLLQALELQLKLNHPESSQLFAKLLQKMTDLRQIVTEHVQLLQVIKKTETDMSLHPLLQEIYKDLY
Type: functional, cell-based, HepG2
Description: Agonist activity at PPARgamma receptor expressed in human HepG2 cells by PPRE-luciferase reporter gene assay

Row | SMILES | EC50 [nM]
1 | COC1=C(OC)Cc2c(cc[n+]3c(CCC(=O)O)c4cc(OC)c(OC)cc4cc23)C1 | 220000
2 | Cc1ccc(S(=O)(=O)Oc2ccc(N(CC(=O)O)S(=O)(=O)c3ccc(C)cc3)cc2)cc1 | 15.3
3 | COc1ccc(-c2nc(SCC(=O)O)n(-c3ccccn3)c2-c2ccc(OC)cc2)cc1 | 224
